# Test results reported in patent US20160318933A1, “FUSED PYRAZOLE DERIVATIVE” (SUMITOMO DAINIPPON PHARMA CO., LTD., priority 2013, published 2016).
# Target: T1, human brain-derived dopamine D4 receptor (Homo sapiens, UniProt P21917)
# T1 construct: expressed in transfected cells; host or cells: CHO (CHO-K1) or HEK293 cells
# T1 sequence (P21917 1-419): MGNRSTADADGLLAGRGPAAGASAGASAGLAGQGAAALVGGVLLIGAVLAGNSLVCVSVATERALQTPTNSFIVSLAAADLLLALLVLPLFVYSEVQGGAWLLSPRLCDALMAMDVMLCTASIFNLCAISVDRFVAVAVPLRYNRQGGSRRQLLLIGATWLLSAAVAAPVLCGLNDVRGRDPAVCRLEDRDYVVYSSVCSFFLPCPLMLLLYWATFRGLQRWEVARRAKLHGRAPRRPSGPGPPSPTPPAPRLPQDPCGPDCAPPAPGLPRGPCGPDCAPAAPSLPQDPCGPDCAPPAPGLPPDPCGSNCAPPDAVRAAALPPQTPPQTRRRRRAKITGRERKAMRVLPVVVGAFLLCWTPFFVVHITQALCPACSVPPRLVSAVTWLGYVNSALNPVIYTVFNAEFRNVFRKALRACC
# Assay: Agonistic activity in G protein dependent pathway of dopamine D4 receptor (aequorin intracellular calcium luminescence, FDSS)
# Assay type: cell-based
# Details: for EC50: concentration required to achieve a 50% response of Emax, CHO-K1 or HEK293 cells transfected with D4 receptor; for Emax: read-out: Maximal activity on D4 receptor (%)
# From the text: The G protein dependent pathway is a pathway for transmitting signals in cells via a second messenger by stimulating a G protein through the binding of guanosine triphosphate (GTP) to the G protein. When GPCRs are activated by the binding of a ligand, a G protein binds to the GPCRs, and thereby GTP binds to a Gα subunit that is one of G protein subunits and a Gγβ subunit is dissociated. The activated Gα subunit regulates intracellular cAMP levels by the activation or inhibition of an adenylate cyclase, and regulates intracellular calcium levels by the activation of phospholipase C to transmit signals in cells.
# The agonistic activities of the present compounds in the G protein dependent pathway were evaluated on the basis of intracellular calcium levels as follows. CHO-K1 or HEK293 cell lines transfected with D4 receptor genes were seeded in a 384-well plate, and incubated in a CO2 incubator at 37° C. for 24 hours, and then a solution of the present compound in DMSO was added into cells preloaded with coelenterazine to measure the change in luminescent signals with a FDSS (Hamamatsu Photonics K.K.). […] The agonistic activity of the present compound was calculated according to the measured luminescent signals, as the maximal activity (Emax) of the present compound. EC50 value was calculated as the concentration of the present compound required to achieve a 50% response of Emax.
Structure (SMILES),EC50 [nM],Emax [%]
Nc1ncc(CN2CCn3nc(-c4ncccc4F)cc3C2)cn1 [Example 151],103,69
Cc1c(-c2ccccn2)nn2c1CN(Cc1ccc(C(F)(F)F)cn1)CC2 [Example 108],1,66
Cc1cccnc1-c1cc2n(n1)CCN(Cc1cccc(Cl)c1)C2 [Example 59],36,58
Cc1cccnc1-c1cc2n(n1)CCN(Cc1cccc(C(F)(F)F)c1)C2 [Example 60],99,59
Fc1cccnc1-c1cc2n(n1)CCN(Cc1cnc(C(F)(F)F)nc1)C2 [Example 198],45,33
N#Cc1cc(CN2CCn3nc(-c4ccccn4)cc3C2)ccc1F [Example 36],40,77
Cc1ccc(CN2CCn3nc(-c4ncccc4C)cc3C2)nc1 [Example 107],13,61
Cc1cccc(CN2CCn3nc(-c4ncccc4F)cc3C2)n1 [Example 161],26,74
COc1ccccc1-c1cc2n(n1)CCN(Cc1cn3ccccc3n1)C2 [Example 17],25,52
Cc1c(-c2ncccc2F)nn2c1CN(Cc1ccc3c(n1)CCCC3)CC2 [Example 124],47,76
Cc1c(-c2ccccn2)nn2c1CN(Cc1ccc(CF)nc1)CC2 [Example 134],42,62
Cc1cccnc1-c1cc2n(n1)CCN(Cc1cnn3c1CCCC3)C2 [Example 88],93,54
Cc1cccnc1-c1cc2n(n1)CCN(Cc1ccc(CF)cn1)C2 [Example 123],32,65
Fc1c(-c2ccccn2)nn2c1CN(Cc1ccccc1)CC2 [Example 78],11,51
Cc1cccnc1-c1cc2n(n1)CCN(Cc1nc(C)n3ccccc13)C2 [Example 85],78,78
Cc1cccnc1-c1cc2n(n1)CCN(Cc1nn(C)c3ccccc13)C2 [Example 158],65,74
Cc1cccnc1-c1cc2n(n1)CCN(Cc1cnc(C(F)(F)F)nc1)C2 [Example 195],84,35
Cc1cccnc1-c1cc2n(n1)CCN(Cc1cc3c(cn1)CCC3)C2 [Example 181],43,43
Cc1ccc(CN2CCn3nc(-c4ncccc4F)c(C)c3C2)cc1 [Example 82],46,91
Cc1ccc(CN2CCn3nc(-c4ccccn4)c(C)c3C2)nc1 [Example 110],18,99
Cn1nc(CN2CCn3nc(-c4ncccc4F)cc3C2)c2ccccc21 [Example 167],17,69

Structure (SMILES),EC50 [nM],Emax [%]
"Cc1cccnc1-c1cc2n(n1)CCN(Cc1ccc(C(F)(F)F)nc1)C2 [Example 143, 2-(3-Methylpyridin-2-yl)-5-{[6-(trifluoromethyl)pyridin-3-yl]methyl}-4,5,6,7-tetrahydropyrazolo[1,5-a]pyrazine]",80,48
Cc1cccnc1-c1cc2n(n1)CCN(Cc1ccc(F)c(C)n1)C2 [Example 135],49,54
Cc1cc(CN2CCn3nc(-c4ncccc4C)cc3C2)cnc1Cl [Example 187],32,66
c1ccc(-c2cc3n(n2)CCN(Cc2ccc4cn[nH]c4c2)C3)nc1 [Example 15],9.2,62
Cc1cnc(CN2CCn3nc(-c4ncccc4C)c(C)c3C2)cn1 [Example 119],145,71
Cc1ccc(CN2CCn3nc(-c4ncccc4F)cc3C2)cn1 [Example 50],61,41
Cc1cccc(CN2CCn3nc(-c4ncccc4C)cc3C2)c1 [Example 54],7,80
Cc1cccnc1-c1cc2n(n1)CCN(Cc1ccc(Cl)cn1)C2 [Example 97],49,85
Cc1cccnc1-c1nn2c(c1C)CN(Cc1ccc(C(F)(F)F)cn1)CC2 [Example 118],106,59
Fc1cccnc1-c1cc2n(n1)CCN(Cc1cnc(C(F)F)nc1)C2 [Example 199],101,36
Cc1cccnc1-c1cc2n(n1)CCN(Cc1ccc(Cl)c(C)n1)C2 [Example 178],32,50
Cc1c(-c2ncccc2F)nn2c1CN(Cc1ccc(C(F)(F)F)cc1)CC2 [Example 83],84,72
Cc1c(-c2ccccn2)nn2c1CN(Cc1ccc(C(F)(F)F)cc1)CC2 [Example 74],73,65
N#Cc1ccc(CN2CCn3nc(-c4ccccn4)cc3C2)cc1 [Example 29],38,48
Cc1ccccc1CN1CCn2nc(-c3ccccn3)cc2C1 [Example 26],61,49
Cc1cccnc1-c1cc2n(n1)CCN(Cc1ccc([N+](=O)[O-])cc1)C2 [Example 65],20,69
Cc1cccnc1-c1cc2n(n1)CCN(Cc1cc3ccccc3[nH]1)C2 [Example 145],45,52
Cc1nc(CN2CCn3nc(-c4ncccc4C)cc3C2)cs1 [Example 139],0.6,56
Cc1cnc(CN2CCn3nc(-c4ncccc4F)cc3C2)cn1 [Example 159],92,64
Fc1ccc(CN2CCn3nc(-c4ccccn4)cc3C2)cc1 [Example 2],28,83
Cc1nc2c(CN3CCn4nc(-c5ccccn5)cc4C3)cccc2[nH]1 [Example 42],100,50

Structure (SMILES),EC50 [nM],Emax [%]
Cc1c(-c2ccccn2)nn2c1CN(Cc1ccc(C(F)(F)F)nc1)CC2 [Example 95],51,56
CC(C)c1ncc(CN2CCn3nc(-c4ncccc4F)cc3C2)cn1 [Example 204],44,50
Cc1cccnc1-c1cc2n(n1)CCN(Cc1cccc(OC(F)(F)F)c1)C2 [Example 63],102,40
Cc1ccc(CN2CCn3nc(-c4ncccc4C)cc3C2)nc1C [Example 131],22,66
"Cc1cccnc1-c1cc2n(n1)CCN(Cc1cnc(C)c(Cl)c1)C2 [Example 189, 5-[(5-Chloro-6-methylpyridin-3-yl)methyl]-2-(3-methylpyridin-2-yl)-4,5,6,7-tetrahydropyrazolo[1,5-a]pyrazine]",57,49
Cc1cccnc1-c1nn2c(c1C)CN(Cc1ccc(C(F)(F)F)nc1)CC2 [Example 117],241,51
Cc1cccnc1-c1cc2n(n1)CCN(Cc1ncc(Br)cc1F)C2 [Example 183],108,49
Cc1cccnc1-c1cc2n(n1)CCN(Cc1n[nH]c3cc(F)ccc13)C2 [Example 100],20,79
Cc1cccnc1-c1cc2n(n1)CCN(Cc1cn3c(n1)CCCC3)C2 [Example 87],62,47
Cc1cccnc1-c1cc2n(n1)CCN(Cc1cn(C)c3ccccc13)C2 [Example 148],47,71
Cc1cccnc1-c1cc2n(n1)CCN(Cc1ccc(OC(F)(F)F)cc1F)C2 [Example 66],140,52
Cc1cccnc1-c1cc2n(n1)CCN(Cc1ccc(C(F)F)nc1)C2 [Example 138],50,49
Cc1cnc(CN2CCn3nc(-c4ncccc4C)cc3C2)cn1 [Example 154],101,57
Cc1ncc(CN2CCn3nc(-c4ncccc4C)cc3C2)cn1 [Example 170],152,48
Cn1nc2ccccc2c1CN1CCn2nc(-c3ncccc3F)cc2C1 [Example 168],82,65
Cc1cccnc1-c1cc2n(n1)CCN(Cc1cnc3c(c1)CCCC3)C2 [Example 186],51,44
Cc1c(-c2ccccn2)nn2c1CN(Cc1cn3c(n1)CCCC3)CC2 [Example 94],42,49
Cc1ccc(CN2CCn3nc(-c4ccccn4)cc3C2)nc1N [Example 98],20,54
"Fc1c(-c2ccccn2)nn2c1CN(Cc1ccccc1)CCC2 [Example 33, 5-Benzyl-3-fluoro-2-(pyridin-2-yl)-5,6,7,8-tetrahydro-4H-pyrazolo[1,5-a][1,4]diazepine]",63,41
